Assay results published in patent US11219611B2 (Ocera Therapeutics, Inc., priority 2015, dated 2022).

Key:
ammonia = details: clinical study reported by Jalan et al. 2007; cited from earlier work
hepatic encephalopathy = details: cited from earlier work
[1] = Phase 1 single-dose crossover study in healthy subjects: plasma PAA and PAGN pharmacokinetics
Method: Plasma samples were analyzed for concentrations of phenylacetic acid (PAA), phenylacetylglutamine (PAGN) and ornithine (ORN) using a validated LC-MS/MS method. All urine samples were analyzed for concentrations of PAGN using a validated LC-MS/MS method.
Pharmacokinetics: Plasma concentration vs. time profiles of phenylacetate, ornithine, and phenylacetylglutamine following a single oral dose of each of the study drug were analyzed by noncompartmental PK methods. Pharmacokinetic parameters that were determined include Cmax, tmax, AUC0-t, AUC0-∞, C12 and t1/2.

[2] = Phase 1 study in healthy subjects: urinary excretion of PAGN over 24 hours; assay type: in vivo, human; details: single oral dose; for Percent PAA Dose Excreted over 24 hours: urine as PAGN
Method: Plasma samples were separated by centrifugation within 1 hour of blood collection and stored at approximately −80° C. until analyzed. The total urine volume for each collection interval were measured and recorded and aliquots of urine were stored at approximately −80° C. until analyzed.

Molecule | ammonia lowering (ammonia) | incidence of hepatic encephalopathy events (hepatic encephalopathy; clinical studies, 6 mL twice daily) | efficacy for the treatment of hepatic encephalopathy (hepatic encephalopathy; clinical trials (Rockey et al., Hepatology 2014)) | time after dosing at which mean plasma PAGN Cmax occurred ([1]; single oral dose (10 g extended-release formulation or 6 mL RAVICTI)) | mean maximum concentration (Cmax) of plasma PAA ([1]; single oral dose (10 g extended-release formulation or 6 mL RAVICTI, each about 5 g PAA equivalent)) | PAA converted to PAGN excretion over 24 hours (conversion efficiency) ([2]; Table 2) | Percent PAA Dose Excreted over 24 hours ([2]; mean) [%] | Percent PAA Dose Excreted over 24 hours ([2]; median) [%] | Total PAGN Amount Excreted over 24 hours ([2]; urine, mean) [G] | PAA Equivalents Excreted over 24 hours ([2]; urine, median) [G] | Total PAGN Amount Excreted over 24 hours ([2]; urine, median) [G]
L-ornithine phenylacetate | useful in ammonia lowering |  |  |  |  |  |  |  |  |  | 
O=C(CCCc1ccccc1)OCC(COC(=O)CCCc1ccccc1)OC(=O)CCCc1ccccc1 [RAVICTI®, glycerol phenylbutyrate] |  | lower the incidence of hepatic encephalopathy events | preliminary efficacy | approximately 5 hours | approximately 10 μg/mL | about 40% | 42.7 | 42.1 | 4.11 | 2.09 | 4.06
